# Legend:
# Format in all cases: in vivo, rat
# [1] = system: neuronal nitric oxide synthetase (NOS); test: NOS immunopositive striatal neuron count after hypoxic-ischemic injury; conditions: adult Wistar rats, 3 ug GPE 2 hours after hypoxia, striatum counted 3 days after injury, vs vehicle; #p=0.072, *p=0.008; FIG. 3
# Protocol: (§1) The objective of these studies was to determine the effects of administering GPE on expression of NOS in the presence or absence of CNS injury. The experiment involved treating the rats with a control vehicle or GPE 2 hours after a focal CNS injury. […] The degree and length of hypoxia, the ambient temperature and humidity were defined to standardise the degree of damage. The neuronal death is restricted to the side of the carotid ligation and is primarily in the hippocampus, dentate gyrus, striatum and lateral cortex of the ligated hemisphere. There is no neuronal loss in the contralateral hemisphere.
# (§2) Specifically, nine pairs of adult wistar rats (280-320 g) were prepared under halothane/O2 anaesthesia. The right side carotid artery was ligated. A guide cannula was placed on the dura 7.5 mm anterior from stereotaxic zero and 1.5 mm from midline on the right. The rats were allowed to recover for 1 hour and were then placed in an incubator with humidity 90+/−5% and temperature 31+/−0.5° C. for 1 hour before hypoxia. Oxygen concentration was reduced and maintained at 6+/−0.202% for 10 minutes. […]
# (§3) The size of the striatal region used for the count was measured using an image analyser. […] Data were analysed with paired t-test and presented as mean +/− sem.
# [2] = system: Choline acetyltransferase (ChAT); test: ChAT immunopositive striatal neuron count after hypoxic-ischemic injury; conditions: adult Wistar rats, 3 ug GPE centrally via guide cannula 2 hours after hypoxia, striatum counted 3 days after injury, vs vehicle; FIG. 1
# Protocol: as §1, with “ChAT” for “NOS”, “hippocarnpus,” for “hippocampus,”
# as §2, with “(280-320g)” for “(280-320 g)”
# as §3
# ChAT = ChAT immunoreactivity in striatum after quinolinic acid induced injury; conditions: adult male Wistar rats, 3 μg GPE into right lateral ventricle 2 hours after quinolinic acid, 3 days; no statistics; FIG. 6
# Excerpt: (§4) The objective of this study was to determine the effect of GPE administration on the expression of GAD, NOS and ChAT in the presence or absence of injury to the striatum induced by quinolinic acid. When injected into the striatum in experimental animals quinolinic acid produces lesions arising from the loss of striatopallidal and striatonigral GABAergic projection neurons, but spares the axons in the striatum (Science, 219, 316-318 [1983]). Rats were either treated with a control vehicle or GPE 2 hours after administration of quinolinic acid.
# (§5) A total of 14 adult male Wistar rats (280-310 g) were used in this investigation. Eight rats were anaesthetized using halothane/O2 anaesthesia. An injection of quinolinic acid ([…], Sigma, dissolved in 4M NaOH) was stereotaxically placed in the dorsal region of the right striatum 0.8 mm anterior to bregma, 2.5 mm lateral to the midline and 4.0 mm ventral to the pial surface. […]
# (§6) The size of the striatal region used for the count was measured using an image analyser (Mocha image analysis software). […] The data has not been analysed for statistical signigicance. Tissue from one of the GPE treated animals was unable to be counted.
# NOS = NOS immunoreactivity in striatum after quinolinic acid induced injury; conditions: adult male Wistar rats, 3 days, FIG. 5
# Excerpt: as §4, §5, §6
# GAD [3] = test: GAD immunoreactivity in striatum after quinolinic acid induced injury; conditions: adult male Wistar rats, 3 μg GPE into right lateral ventricle 2 hours after quinolinic acid, 3 days, vs vehicle; no statistics; FIG. 4
# Excerpt: as §4, §5, §6
# GAD [4] = test: GAD immunopositive striatal neuron count after hypoxic-ischemic injury; conditions: adult Wistar rats, 3 ug GPE 2 hours after hypoxia, striatum counted 3 days after injury, vs vehicle; *p<0.05; FIG. 2
# Protocol: The objective of these studies was to determine the effects of administering GPE on expression of GAD in the presence or absence of CNS injury. The experiment involved treating the rats with a control vehicle or GPE 2 hours after a focal CNS injury. […] The degree and length of hypoxia, the ambient temperature and humidity were defined to standardise the degree of damage. The neuronal death is restricted to the side of the carotid ligation and is primarily in the hippocampus, dentate gyrus, striatum and lateral cortex of the ligated hemisphere. There is no neuronal loss in the contralateral hemisphere. Specifically, nine pairs of adult wistar rats (280-320 g) were prepared under halothane/O2 anaesthesia. The right side carotid artery was ligated. A guide cannula was placed on the dura 7.5 mm anterior from stereotaxic zero and 1.5 mm from midline on the right. The rats were allowed to recover for 1 hour and were then placed in an incubator with humidity 90+/-5% and temperature 31+/-0.5° C. for 1 hour before hypoxia. Oxygen concentration was reduced and maintained at 6+/-0.202% for 10 minutes. […] The size of the striatal region used for the count was measured using an image analyser. […] Data were analysed with paired t-test and presented as mean +/- sem.
substance,measurement,setting,value
Gly-Pro-Glu [GPE],number of NOS immunopositive neurons,[1],increased in both the right and left (uninjured) sides
same,number of ChAT immunopositive neurons,[2],increased in both the right and left (uninjured) sides
same,levels of ChAT (ChAT-positive striatal neurons),ChAT,upregulated the levels of ChAT to above normal on the right (injured) side of the brain
same,"NOS enzyme levels relative to normal, left (non-injured) side","NOS; 3 μg GPE 2 hours after quinolinic acid, compared with normal controls",restoring the enzyme levels to normal
same,NOS enzyme expression (NOS-positive striatal neurons),"NOS; 3 μg GPE into right lateral ventricle 2 hours after quinolinic acid, vs vehicle, no statistics",upregulation of enzyme expression on both sides of the brain
same,GAD expression (GAD-positive striatal neurons),GAD [3],upregulation of GAD expression on both sides of the brain
same,number of GAD immunopositive neurons,GAD [4],increased in the right side
